Reference: patent publication US9273067B2, “Pyrazolopyrimidine macrocycles as inhibitors of human immunodeficiency virus replication” (BRISTOL-MYERS SQUIBB COMPANY, priority 2014, dated 2016)
Where two headings read alike, the source gives them in different places.

CCOC(=O)[C@@H](OC(C)(C)C)c1c(C)nc2cc3nn2c1N1CCC(C)(CC1)OCC=CCc1cc(C)ccc1COC3
ring closure, isolated yield (from C=CCOC1(C)CCN(c2c([C@H](OC(C)(C)C)C(=O)OCC)c(C)nc3cc(COCc4ccc(C)cc4CC=C)nn23)CC1, rcm bond, 18-membered ring, Grubbs II (1 eq), then NaBH4/MeOH, DCM, 1.62 mM, 40.0 °C, 2.0 h, 2 steps): 62.6%

CCOC(=O)[C@@H](OC(C)(C)C)c1c(C)nc2cc3nn2c1N1CCC(C)(CC1)OCC=CCc1cc(F)c(F)cc1COC3
ring closure, isolated yield (from C=CCOC1(C)CCN(c2c([C@H](OC(C)(C)C)C(=O)OCC)c(C)nc3cc(COCc4cc(F)c(F)cc4CC=C)nn23)CC1, rcm bond, 18-membered ring, Grubbs II (0.1 eq), then NaBH4/MeOH, DCM, 1.56 mM, 40.0 °C, 2.0 h, 2 steps): 62.5%

CCOC(=O)[C@@H](OC(C)(C)C)c1c(C)nc2cc3nn2c1N1CCC(C)(CC1)OCC=CCc1cc(F)ccc1COC3
ring closure, isolated yield (from C=CCOC1(C)CCN(c2c([C@H](OC(C)(C)C)C(=O)OCC)c(C)nc3cc(COCc4ccc(F)cc4CC=C)nn23)CC1, rcm bond, 18-membered ring, Grubbs II (1 eq), then NaBH4/MeOH, DCM, 1.6 mM, 40.0 °C, 2.0 h, 2 steps): 44.7%

CCOC(=O)[C@@H](OC(C)(C)C)c1c(C)nc2cc3nn2c1N1CCC(C)(CC1)OCC=CCc1ccccc1COC3
ring closure, isolated yield (from C=CCOC1(C)CCN(c2c([C@H](OC(C)(C)C)C(=O)OCC)c(C)nc3cc(COCc4ccccc4CC=C)nn23)CC1, rcm bond, 18-membered ring, Hoveyda-Grubbs II (20 mol%)/CuI, 1,2-dichloroethane, 1.4 mM, 70.0 °C, 2.0 h): 76%

CCOC(=O)[C@@H](OC(C)(C)C)c1c(C)nc2cc3nn2c1N1CCC(C)(CC1)OCC=Cc1cc(C(F)(F)F)ccc1COC3
ring closure, isolated yield (from C=CCOC1(C)CCN(c2c([C@H](OC(C)(C)C)C(=O)OCC)c(C)nc3cc(COCc4ccc(C(F)(F)F)cc4Br)nn23)CC1, cc_pd bond, 17-membered ring, Pd2(dba)3/PPh3/Et3N, MeCN, 35.1 mM, 120.0 °C, 23.0 h): 62.9%
